According to ChEMBL document CHEMBL4145553, “Design, synthesis, and biological evaluation of novel amide and hydrazide based thioether analogs targeting Histone deacteylase (HDAC) enzymes” (Eur J Med Chem, 2018):

What was measured:
[1] = tested on: Malme-3M; test: Growth inhibition of human MALME-3M cells assessed as cell growth at 10^-6 M incubated for 48 hrs by sulforhodamine B assay relative to control; format: functional; conditions: read-out: Activity
[2] = tested on: UACC-257; test: Growth inhibition of human UACC257 cells assessed as cell growth at 10^-7 M incubated for 48 hrs by sulforhodamine B assay relative to control; format: functional; conditions: UACC-257, 48 h, read-out: Activity
[3] = tested on: BT-549; test: Growth inhibition of human BT549 cells assessed as cell growth at 10^-8 M incubated for 48 hrs by sulforhodamine B assay relative to control; format: functional; conditions: BT-549, 48 h, read-out: Activity
[4] = tested on: NCI-H460; test: Growth inhibition of human NCI-H460 cells assessed as cell growth at 10^-4 M incubated for 48 hrs by sulforhodamine B assay relative to control; format: functional; conditions: NCI-H460, 48 h, read-out: Activity
[5] = tested on: OVCAR-3; test: Growth inhibition of human OVCAR3 cells assessed as cell growth at 10^-6 M incubated for 48 hrs by sulforhodamine B assay relative to control; format: functional; conditions: OVCAR-3, 48 h, read-out: Activity
[6] = tested on: SW-620; test: Growth inhibition of human SW620 cells assessed as cell growth at 10^-4 M incubated for 48 hrs by sulforhodamine B assay relative to control; format: functional; conditions: SW-620, 48 h, read-out: Activity
[7] = tested on: CAKI-1; test: Growth inhibition of human Caki1 cells assessed as cell growth at 10^-4 M incubated for 48 hrs by sulforhodamine B assay relative to control; format: functional; conditions: CAKI-1, 48 h, read-out: Activity
[8] = tested on: ACHN; test: Growth inhibition of human ACHN cells incubated for 48 hrs by sulforhodamine B assay; format: functional
[9] = tested on: CAKI-1; test: Growth inhibition of human Caki1 cells assessed as cell growth at 10^-5 M incubated for 48 hrs by sulforhodamine B assay relative to control; format: functional; conditions: CAKI-1, 48 h, read-out: Activity
[10] = tested on: HL-60(TB); test: Growth inhibition of human HL-60(TB) cells assessed as cell growth at 10^-5 M incubated for 48 hrs by sulforhodamine B assay relative to control; format: functional; conditions: HL-60, 48 h, read-out: Activity
[11] = tested on: SNB-19; test: Growth inhibition of human SNB19 cells incubated for 48 hrs by sulforhodamine B assay; format: functional; conditions: SNB-19, 48 h
[12] = tested on: A498; test: Growth inhibition of human A498 cells assessed as cell growth at 10^-7 M incubated for 48 hrs by sulforhodamine B assay relative to control; format: functional; conditions: A498, 48 h, read-out: Activity
[13] = tested on: UACC-257; test: Growth inhibition of human UACC257 cells assessed as cell growth at 10^-8 M incubated for 48 hrs by sulforhodamine B assay relative to control; format: functional; conditions: UACC-257, 48 h, read-out: Activity
[14] = tested on: RXF 393; test: Growth inhibition of human RXF393 cells assessed as cell growth at 10^-7 M incubated for 48 hrs by sulforhodamine B assay relative to control; format: functional; conditions: RXF 393, 48 h, read-out: Activity
[15] = tested on: RPMI-8226; test: Growth inhibition of human RPMI8226 cells assessed as cell growth at 10^-6 M incubated for 48 hrs by sulforhodamine B assay relative to control; format: functional; conditions: RPMI-8226, 48 h, read-out: Activity
[16] = tested on: KM12; test: Growth inhibition of human KM12 cells incubated for 48 hrs by sulforhodamine B assay; format: functional; conditions: KM12, 48 h
[17] = target: Histone deacetylase 1 (Homo sapiens, UniProt Q13547); test: Inhibition of human HDAC1 by ELISA
Histone deacetylase 1, sequence (Q13547 whole entry): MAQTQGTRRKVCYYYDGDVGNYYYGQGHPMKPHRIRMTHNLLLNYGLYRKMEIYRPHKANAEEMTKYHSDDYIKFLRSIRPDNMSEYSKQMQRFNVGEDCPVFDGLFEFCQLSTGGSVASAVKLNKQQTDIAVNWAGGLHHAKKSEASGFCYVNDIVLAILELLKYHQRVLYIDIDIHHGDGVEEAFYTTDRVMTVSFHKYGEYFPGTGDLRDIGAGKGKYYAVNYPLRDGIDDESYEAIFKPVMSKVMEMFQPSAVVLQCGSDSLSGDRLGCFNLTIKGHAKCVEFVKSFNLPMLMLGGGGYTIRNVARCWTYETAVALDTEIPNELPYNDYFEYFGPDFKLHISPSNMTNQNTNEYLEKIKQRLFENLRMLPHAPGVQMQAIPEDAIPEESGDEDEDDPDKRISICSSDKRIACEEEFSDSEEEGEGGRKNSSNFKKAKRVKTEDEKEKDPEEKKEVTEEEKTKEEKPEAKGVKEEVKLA

[18] = tested on: SK-MEL-28; test: Growth inhibition of human SK-MEL-28 cells assessed as cell growth at 10^-5 M incubated for 48 hrs by sulforhodamine B assay relative to control; format: functional; conditions: SK-MEL-28, 48 h, read-out: Activity
[19] = tested on: RXF 393; test: Growth inhibition of human RXF393 cells incubated for 48 hrs by sulforhodamine B assay; format: functional; conditions: RXF 393, 48 h
[20] = tested on: A549; test: Growth inhibition of human A549/ATCC cells assessed as cell growth at 10^-7 M incubated for 48 hrs by sulforhodamine B assay relative to control; format: functional; conditions: A549, 48 h, read-out: Activity
[21] = tested on: UO-31; test: Growth inhibition of human UO31 cells assessed as cell growth at 10^-4 M incubated for 48 hrs by sulforhodamine B assay relative to control; format: functional; conditions: UO-31, 48 h, read-out: Activity
[22] = tested on: OVCAR-8; test: Growth inhibition of human OVCAR8 cells incubated for 48 hrs by sulforhodamine B assay; format: functional; conditions: OVCAR-8, 48 h
[23] = tested on: HT-29; test: Growth inhibition of human HT-29 cells assessed as cell growth at 10^-6 M incubated for 48 hrs by sulforhodamine B assay relative to control; format: functional; conditions: HT-29, 48 h, read-out: Activity
[24] = tested on: NCI-H322M; test: Growth inhibition of human NCI-H322M cells incubated for 48 hrs by sulforhodamine B assay; format: functional
[25] = tested on: SN12C; test: Growth inhibition of human SN12C cells assessed as cell growth at 10^-7 M incubated for 48 hrs by sulforhodamine B assay relative to control; format: functional; conditions: read-out: Activity
[26] = tested on: U-251; test: Growth inhibition of human U251 cells incubated for 48 hrs by sulforhodamine B assay; format: functional; conditions: U-251, 48 h
[27] = tested on: T47D; test: Growth inhibition of human T47D cells assessed as cell growth at 10^-4 M incubated for 48 hrs by sulforhodamine B assay relative to control; format: functional; conditions: read-out: Activity
[28] = tested on: A498; test: Growth inhibition of human A498 cells assessed as cell growth at 10^-4 M incubated for 48 hrs by sulforhodamine B assay relative to control; format: functional; conditions: A498, 48 h, read-out: Activity
[29] = tested on: MCF7; test: Growth inhibition of human MCF7 cells assessed as cell growth at 10^-5 M incubated for 48 hrs by sulforhodamine B assay relative to control; format: functional; conditions: MCF7, 48 h, read-out: Activity
[30] = tested on: T47D; test: Growth inhibition of human T47D cells assessed as cell growth at 10^-6 M incubated for 48 hrs by sulforhodamine B assay relative to control; format: functional; conditions: read-out: Activity
[31] = read-out: LC50 (the source's name)
[32] = read-out: pLC50 (the source's name) (converted)

SMILES: CCS/C(Nc1ccccc1)=C(\C#N)C(=O)N/N=C\c1ccc(Cl)cc1Cl
- growth at 1 µM [1]: 79%
- growth at 0.1 µM [2]: 94%
- growth at 0.01 µM [3]: 98%
- growth at 100 µM [4]: 6%
- growth at 1 µM [5]: 90%
- growth at 100 µM [6]: 25%
- growth at 100 µM [7]: 13%
- GI50 ([8]; read-out: GI50): 7.08 µM
- CC50 [8, 31]: > 100 µM
- TGI ([8]; read-out: TGI): > 100 µM
- GI50 ([8]; read-out: pGI50 (converted)): 7.08 µM
- CC50 [8, 32]: > 100 µM
- TGI ([8]; read-out: pTGI): > 100 µM
- growth at 10 µM [9]: 23%
- growth at 10 µM [10]: 8%
- GI50 ([11]; read-out: GI50): 4.17 µM
- CC50 [11, 31]: > 100 µM
- TGI ([11]; read-out: TGI): > 100 µM
- GI50 ([11]; read-out: pGI50 (converted)): 4.17 µM
- CC50 [11, 32]: > 100 µM
- TGI ([11]; read-out: pTGI): > 100 µM
- growth at 0.1 µM [12]: 78%
- growth at 0.01 µM [13]: 94%
- growth at 0.1 µM [14]: 87%
- growth at 1 µM [15]: 92%
- GI50 ([16]; read-out: GI50): 4.04 µM
- CC50 [16, 31]: > 100 µM
- TGI ([16]; read-out: TGI): > 100 µM
- GI50 ([16]; read-out: pGI50 (converted)): 4.07 µM
- CC50 [16, 32]: > 100 µM
- TGI ([16]; read-out: pTGI): > 100 µM
- IC50 [17]: 0.07 µM
- growth at 10 µM [18]: 53%
- GI50 ([19]; read-out: GI50): 2.06 µM
- CC50 [19, 31]: > 100 µM
- TGI ([19]; read-out: TGI): 8.65 µM
- GI50 ([19]; read-out: pGI50 (converted)): 2.04 µM
- CC50 [19, 32]: > 100 µM
- TGI ([19]; read-out: pTGI (converted)): 8.71 µM
- growth at 0.1 µM [20]: 92%
- growth at 100 µM [21]: 41%
- GI50 ([22]; read-out: GI50): 4.81 µM
- CC50 [22, 31]: > 100 µM
- TGI ([22]; read-out: TGI): > 100 µM
- GI50 ([22]; read-out: pGI50 (converted)): 4.79 µM
- CC50 [22, 32]: > 100 µM
- TGI ([22]; read-out: pTGI): > 100 µM
- growth at 1 µM [23]: 101%
- GI50 ([24]; read-out: GI50): 6.87 µM
- CC50 [24, 31]: > 100 µM
- TGI ([24]; read-out: TGI): > 100 µM
- GI50 ([24]; read-out: pGI50 (converted)): 6.92 µM
- CC50 [24, 32]: > 100 µM
- TGI ([24]; read-out: pTGI): > 100 µM
- growth at 0.1 µM [25]: 92%
- GI50 ([26]; read-out: GI50): 3.95 µM
- CC50 [26, 31]: > 100 µM
- TGI ([26]; read-out: TGI): > 100 µM
- GI50 ([26]; read-out: pGI50 (converted)): 3.98 µM
- CC50 [26, 32]: > 100 µM
- TGI ([26]; read-out: pTGI): > 100 µM
- growth at 100 µM [27]: 17%
- growth at 100 µM [28]: -2%
- growth at 10 µM [29]: 14%
- growth at 1 µM [30]: 89%
